Laboratory results from the kinase profiling compilation of Christmann-Franck et al. (2016).

Assays:
Experiment in all cases: radiometric filter-binding kinase assay
AURKA (human) = AURKA (human) (UniProt O14965)
AURKB (human) = AURKB (human) (UniProt Q96GD4)
BRSK1 (human) = BRSK1 (human) (UniProt Q8TDC3)
BTK (human) = BTK (human) (UniProt Q06187)
CDK2 CCNA2 (human) = CDK2 CCNA2 (human) (UniProt P20248+P24941)
CHEK1 (human) = CHEK1 (human) (UniProt O14757)
CSNK2A1 (human) = CSNK2A1 (human) (UniProt P68400)
DYRK2 (human) = DYRK2 (human) (UniProt Q92630)
EEF2K (human) = EEF2K (human) (UniProt O00418)
EPHA2 (human) = EPHA2 (human) (UniProt P29317)
ERBB4 (human) = ERBB4 (human) (UniProt Q15303)
FGFR1 (human) = FGFR1 (human) (UniProt P11362)
FLT1 (human) = FLT1 (human) (UniProt P17948)
GCK (human) = GCK (human) (UniProt Q12851)
INSRR (human) = INSRR (human) (UniProt P14616)
MAP2K2 (human) = MAP2K2 (human) (UniProt P36507)
MAP2K6 (human) = MAP2K6 (human) (UniProt P52564)
MAPK10 (human) = MAPK10 (human) (UniProt P53779)
MAPK12 (human) = MAPK12 (human) (UniProt P53778)
MAPK15 (human) = MAPK15 (human) (UniProt Q8TD08)
MAPKAPK3 (human) = MAPKAPK3 (human) (UniProt Q16644)
MAPKAPK5 (human) = MAPKAPK5 (human) (UniProt Q8IW41)
MELK (human) = MELK (human) (UniProt Q14680)
MINK1 (human) = MINK1 (human) (UniProt Q8N4C8)
MST4 (human) = MST4 (human) (UniProt Q9P289)
[1] = test system: PAK2 (human), Q13177 [T402E]
PHKG1 (human) = PHKG1 (human) (UniProt Q16816)
PIM2 (human) = PIM2 (human) (UniProt Q9P1W9)
PIM3 (human) = PIM3 (human) (UniProt Q86V86)
PRKACA (human) = PRKACA (human) (UniProt P17612)
PRKCA (human) = PRKCA (human) (UniProt P17252)
RIPK2 (human) = RIPK2 (human) (UniProt O43353)
RPS6KA3 KD1 KD2 (human) = RPS6KA3 KD1 KD2 (human) (UniProt P51812)
[2] = test system: SGK1 (human), O00141 [S422D]
SRPK1 (human) = SRPK1 (human) (UniProt Q96SB4)
TAOK1 (human) = TAOK1 (human) (UniProt Q7L7X3)

Chain of PAK2 (human), Q13177 [T402E] (Q13177 whole entry T402E, looked up): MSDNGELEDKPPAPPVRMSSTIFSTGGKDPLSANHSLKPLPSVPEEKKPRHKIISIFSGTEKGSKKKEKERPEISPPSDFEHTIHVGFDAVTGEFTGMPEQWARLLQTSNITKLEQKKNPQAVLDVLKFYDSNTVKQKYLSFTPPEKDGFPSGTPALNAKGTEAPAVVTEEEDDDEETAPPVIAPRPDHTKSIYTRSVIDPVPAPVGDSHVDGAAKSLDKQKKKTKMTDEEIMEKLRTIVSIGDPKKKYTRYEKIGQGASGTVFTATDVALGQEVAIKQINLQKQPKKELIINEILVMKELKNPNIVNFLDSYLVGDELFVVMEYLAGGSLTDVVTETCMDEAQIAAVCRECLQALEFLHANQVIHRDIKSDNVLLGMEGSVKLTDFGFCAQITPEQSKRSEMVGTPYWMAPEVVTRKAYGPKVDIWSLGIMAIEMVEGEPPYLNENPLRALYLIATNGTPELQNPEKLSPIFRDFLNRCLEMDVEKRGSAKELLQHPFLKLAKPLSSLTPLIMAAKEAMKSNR
Chain of SGK1 (human), O00141 [S422D] (O00141 whole entry S422D, looked up): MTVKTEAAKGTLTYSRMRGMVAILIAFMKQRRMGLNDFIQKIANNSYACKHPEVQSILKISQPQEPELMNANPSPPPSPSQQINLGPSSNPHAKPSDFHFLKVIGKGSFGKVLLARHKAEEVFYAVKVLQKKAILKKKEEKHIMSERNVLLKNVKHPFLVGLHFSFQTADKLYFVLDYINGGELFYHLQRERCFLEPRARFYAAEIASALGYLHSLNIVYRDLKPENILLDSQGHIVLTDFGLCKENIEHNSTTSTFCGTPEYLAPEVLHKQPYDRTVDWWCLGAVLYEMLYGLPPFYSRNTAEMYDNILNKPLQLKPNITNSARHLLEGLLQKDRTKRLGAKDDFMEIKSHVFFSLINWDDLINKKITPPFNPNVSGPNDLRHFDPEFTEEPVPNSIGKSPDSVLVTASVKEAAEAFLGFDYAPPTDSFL
Chain of SRPK1 (human) (Q96SB4 whole entry, looked up): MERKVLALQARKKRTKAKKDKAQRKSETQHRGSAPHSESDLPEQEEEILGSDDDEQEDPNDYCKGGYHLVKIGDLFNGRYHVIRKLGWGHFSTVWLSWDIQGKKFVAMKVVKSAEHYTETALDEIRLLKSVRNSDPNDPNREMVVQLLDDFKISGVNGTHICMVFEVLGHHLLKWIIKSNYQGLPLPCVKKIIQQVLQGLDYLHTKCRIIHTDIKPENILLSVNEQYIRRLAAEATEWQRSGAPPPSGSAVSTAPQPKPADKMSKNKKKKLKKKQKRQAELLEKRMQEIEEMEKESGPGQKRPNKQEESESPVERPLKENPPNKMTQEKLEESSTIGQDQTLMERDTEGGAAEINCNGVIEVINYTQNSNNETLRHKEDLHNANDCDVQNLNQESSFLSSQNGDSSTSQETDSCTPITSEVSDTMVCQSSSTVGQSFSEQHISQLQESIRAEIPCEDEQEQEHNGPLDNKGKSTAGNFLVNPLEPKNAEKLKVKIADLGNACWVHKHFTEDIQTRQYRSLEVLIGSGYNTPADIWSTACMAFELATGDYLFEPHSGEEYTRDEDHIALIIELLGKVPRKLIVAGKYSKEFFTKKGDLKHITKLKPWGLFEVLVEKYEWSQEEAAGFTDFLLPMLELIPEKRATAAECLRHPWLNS
Chain of MAPKAPK5 (human) (Q8IW41 whole entry, looked up): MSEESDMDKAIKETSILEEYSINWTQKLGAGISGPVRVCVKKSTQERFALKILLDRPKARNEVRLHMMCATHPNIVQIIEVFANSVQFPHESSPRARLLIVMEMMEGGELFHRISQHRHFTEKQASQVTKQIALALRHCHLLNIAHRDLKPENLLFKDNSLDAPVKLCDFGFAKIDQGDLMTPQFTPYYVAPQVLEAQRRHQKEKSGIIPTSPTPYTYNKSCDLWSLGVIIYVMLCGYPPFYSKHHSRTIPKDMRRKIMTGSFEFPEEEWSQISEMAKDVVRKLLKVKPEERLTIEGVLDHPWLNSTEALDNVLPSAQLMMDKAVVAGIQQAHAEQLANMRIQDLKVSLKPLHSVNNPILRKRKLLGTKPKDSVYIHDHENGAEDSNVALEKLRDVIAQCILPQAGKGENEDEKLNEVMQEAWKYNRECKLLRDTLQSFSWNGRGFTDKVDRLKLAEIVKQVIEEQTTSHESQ
Chain of EEF2K (human) (O00418 whole entry, looked up): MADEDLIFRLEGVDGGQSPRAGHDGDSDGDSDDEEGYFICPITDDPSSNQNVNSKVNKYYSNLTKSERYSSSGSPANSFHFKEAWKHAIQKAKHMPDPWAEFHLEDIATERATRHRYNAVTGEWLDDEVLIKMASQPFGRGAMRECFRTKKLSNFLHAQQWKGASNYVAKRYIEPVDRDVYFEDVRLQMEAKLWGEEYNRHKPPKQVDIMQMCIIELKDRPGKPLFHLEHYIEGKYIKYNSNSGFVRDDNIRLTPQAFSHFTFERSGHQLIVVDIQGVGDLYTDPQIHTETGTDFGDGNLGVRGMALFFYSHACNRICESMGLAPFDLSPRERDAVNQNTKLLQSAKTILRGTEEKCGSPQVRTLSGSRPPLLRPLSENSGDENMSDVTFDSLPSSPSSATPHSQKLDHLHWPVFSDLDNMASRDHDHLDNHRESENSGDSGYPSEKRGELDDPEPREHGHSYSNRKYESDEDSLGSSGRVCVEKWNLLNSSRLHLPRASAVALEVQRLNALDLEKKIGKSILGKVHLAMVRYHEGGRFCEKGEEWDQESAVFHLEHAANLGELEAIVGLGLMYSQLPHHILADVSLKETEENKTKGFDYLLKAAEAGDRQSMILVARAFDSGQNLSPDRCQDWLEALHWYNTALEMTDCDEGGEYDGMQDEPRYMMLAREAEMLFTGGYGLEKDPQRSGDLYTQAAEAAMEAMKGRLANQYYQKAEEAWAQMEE
Chain of RPS6KA3 KD1 KD2 (human) (P51812 whole entry, looked up): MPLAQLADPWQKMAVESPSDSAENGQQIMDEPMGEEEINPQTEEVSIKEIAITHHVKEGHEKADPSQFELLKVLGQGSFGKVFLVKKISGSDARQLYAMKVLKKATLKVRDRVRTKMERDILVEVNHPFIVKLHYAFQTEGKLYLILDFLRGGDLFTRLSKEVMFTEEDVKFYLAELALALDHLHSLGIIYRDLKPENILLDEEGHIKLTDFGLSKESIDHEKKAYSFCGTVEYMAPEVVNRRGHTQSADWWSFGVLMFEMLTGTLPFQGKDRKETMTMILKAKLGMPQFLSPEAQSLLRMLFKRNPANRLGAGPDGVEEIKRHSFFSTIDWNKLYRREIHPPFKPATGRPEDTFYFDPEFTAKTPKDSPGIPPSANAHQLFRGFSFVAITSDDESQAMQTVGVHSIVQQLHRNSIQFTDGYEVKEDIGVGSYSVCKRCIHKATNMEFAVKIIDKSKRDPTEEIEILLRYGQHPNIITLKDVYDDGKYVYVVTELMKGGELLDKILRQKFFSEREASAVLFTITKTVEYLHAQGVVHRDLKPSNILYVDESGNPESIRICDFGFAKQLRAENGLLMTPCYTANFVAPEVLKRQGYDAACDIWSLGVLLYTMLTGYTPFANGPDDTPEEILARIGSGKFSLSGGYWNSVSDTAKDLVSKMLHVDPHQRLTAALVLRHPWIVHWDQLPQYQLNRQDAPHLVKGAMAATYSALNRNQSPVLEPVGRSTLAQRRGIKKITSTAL
Chain of FGFR1 (human) (P11362 whole entry, looked up): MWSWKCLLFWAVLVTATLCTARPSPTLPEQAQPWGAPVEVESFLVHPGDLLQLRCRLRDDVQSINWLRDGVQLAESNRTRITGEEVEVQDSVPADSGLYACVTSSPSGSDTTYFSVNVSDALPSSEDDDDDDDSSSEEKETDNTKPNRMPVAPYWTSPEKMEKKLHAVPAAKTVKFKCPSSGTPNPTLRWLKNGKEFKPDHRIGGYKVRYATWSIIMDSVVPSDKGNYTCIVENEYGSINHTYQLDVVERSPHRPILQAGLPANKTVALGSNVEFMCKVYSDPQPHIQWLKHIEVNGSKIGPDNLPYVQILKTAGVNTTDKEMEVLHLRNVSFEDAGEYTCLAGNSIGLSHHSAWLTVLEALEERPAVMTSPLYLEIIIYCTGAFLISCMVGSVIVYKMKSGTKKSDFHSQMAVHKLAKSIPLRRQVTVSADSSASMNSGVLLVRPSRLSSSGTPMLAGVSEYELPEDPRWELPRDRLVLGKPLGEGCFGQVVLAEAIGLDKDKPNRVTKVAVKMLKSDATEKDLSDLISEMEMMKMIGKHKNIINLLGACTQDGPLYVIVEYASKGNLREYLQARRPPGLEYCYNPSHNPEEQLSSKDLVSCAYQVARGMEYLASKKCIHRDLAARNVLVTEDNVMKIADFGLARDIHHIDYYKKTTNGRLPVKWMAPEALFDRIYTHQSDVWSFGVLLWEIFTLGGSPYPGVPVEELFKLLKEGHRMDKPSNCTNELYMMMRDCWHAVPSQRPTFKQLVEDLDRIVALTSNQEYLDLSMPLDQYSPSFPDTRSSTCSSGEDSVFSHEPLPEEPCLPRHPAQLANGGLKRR
Chain of AURKA (human) (O14965 whole entry, looked up): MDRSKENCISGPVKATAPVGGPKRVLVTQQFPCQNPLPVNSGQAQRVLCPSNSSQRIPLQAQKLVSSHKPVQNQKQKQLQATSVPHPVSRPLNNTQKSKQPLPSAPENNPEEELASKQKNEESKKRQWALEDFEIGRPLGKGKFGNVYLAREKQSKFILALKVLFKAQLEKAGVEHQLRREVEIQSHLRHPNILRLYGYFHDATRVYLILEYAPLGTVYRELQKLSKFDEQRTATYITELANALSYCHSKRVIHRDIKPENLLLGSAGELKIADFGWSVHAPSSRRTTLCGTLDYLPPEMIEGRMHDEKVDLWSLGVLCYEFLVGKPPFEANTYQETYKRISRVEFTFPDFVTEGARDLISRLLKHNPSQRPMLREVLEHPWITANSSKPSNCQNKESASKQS

residual activity (AURKA (human); compound 1.0 µM): 108% | residual activity (AURKA (human); compound 10.0 µM): 63% | residual activity (AURKB (human); compound 1.0 µM): 81% | residual activity (AURKB (human); compound 10.0 µM): 40% | residual activity (BRSK1 (human); compound 1.0 µM): 138% | residual activity (BRSK1 (human); compound 10.0 µM): 104% | residual activity (BTK (human); compound 1.0 µM): 98% | residual activity (BTK (human); compound 10.0 µM): 84% | residual activity (CDK2 CCNA2 (human); compound 1.0 µM): 79% | residual activity (CDK2 CCNA2 (human); compound 10.0 µM): 47% | residual activity (CHEK1 (human); compound 1.0 µM): 118% | residual activity (CHEK1 (human); compound 10.0 µM): 65% | residual activity (CSNK2A1 (human); compound 1.0 µM): 20% | residual activity (CSNK2A1 (human); compound 10.0 µM): 4% | residual activity (DYRK2 (human); compound 1.0 µM): 16% | residual activity (DYRK2 (human); compound 10.0 µM): 3% | residual activity (EEF2K (human); compound 1.0 µM): 106% | residual activity (EEF2K (human); compound 10.0 µM): 80% | residual activity (EPHA2 (human); compound 1.0 µM): 126% | residual activity (EPHA2 (human); compound 10.0 µM): 94% | residual activity (ERBB4 (human); compound 1.0 µM): 94% | residual activity (ERBB4 (human); compound 10.0 µM): 89% | residual activity (FGFR1 (human); compound 1.0 µM): 102% | residual activity (FGFR1 (human); compound 10.0 µM): 76% | residual activity (FLT1 (human); compound 1.0 µM): 96% | residual activity (FLT1 (human); compound 10.0 µM): 29% | residual activity (GCK (human); compound 1.0 µM): 68% | residual activity (GCK (human); compound 10.0 µM): 17% | residual activity (INSRR (human); compound 1.0 µM): 67% | residual activity (INSRR (human); compound 10.0 µM): 27% | residual activity (MAP2K2 (human); compound 1.0 µM): 87% | residual activity (MAP2K2 (human); compound 10.0 µM): 70% | residual activity (MAP2K6 (human); compound 1.0 µM): 94% | residual activity (MAP2K6 (human); compound 10.0 µM): 100% | residual activity (MAPK10 (human); compound 1.0 µM): 85% | residual activity (MAPK10 (human); compound 10.0 µM): 96% | residual activity (MAPK12 (human); compound 1.0 µM): 91% | residual activity (MAPK12 (human); compound 10.0 µM): 73% | residual activity (MAPKAPK3 (human); compound 1.0 µM): 109% | residual activity (MAPKAPK3 (human); compound 10.0 µM): 95% | residual activity (MAPKAPK5 (human); compound 1.0 µM): 110% | residual activity (MAPKAPK5 (human); compound 10.0 µM): 67% | residual activity (MELK (human); compound 1.0 µM): 81% | residual activity (MELK (human); compound 10.0 µM): 19% | residual activity (MINK1 (human); compound 1.0 µM): 96% | residual activity (MINK1 (human); compound 10.0 µM): 87% | residual activity (MST4 (human); compound 1.0 µM): 118% | residual activity (MST4 (human); compound 10.0 µM): 71% | residual activity ([1]; compound 1.0 µM): 109% | residual activity ([1]; compound 10.0 µM): 101% | residual activity (PHKG1 (human); compound 1.0 µM): 102% | residual activity (PHKG1 (human); compound 10.0 µM): 82% | residual activity (PIM2 (human); compound 1.0 µM): 87% | residual activity (PIM2 (human); compound 10.0 µM): 36% | residual activity (PIM3 (human); compound 1.0 µM): 74% | residual activity (PIM3 (human); compound 10.0 µM): 31% | residual activity (PRKACA (human); compound 1.0 µM): 101% | residual activity (PRKACA (human); compound 10.0 µM): 89% | residual activity (PRKCA (human); compound 1.0 µM): 107% | residual activity (PRKCA (human); compound 10.0 µM): 59% | residual activity (RIPK2 (human); compound 1.0 µM): 83% | residual activity (RIPK2 (human); compound 10.0 µM): 30% | residual activity (RPS6KA3 KD1 KD2 (human); compound 1.0 µM): 132% | residual activity (RPS6KA3 KD1 KD2 (human); compound 10.0 µM): 88% | residual activity ([2]; compound 1.0 µM): 93% | residual activity ([2]; compound 10.0 µM): 39% | residual activity (SRPK1 (human); compound 1.0 µM): 112% | residual activity (SRPK1 (human); compound 10.0 µM): 105% | residual activity (TAOK1 (human); compound 1.0 µM): 65% | residual activity (TAOK1 (human); compound 10.0 µM): 30%
SMILES: FC(F)(F)c1ccc(-c2ccc(Oc3cncc4sc(-c5nn[nH]n5)cc34)cc2)cc1
residual activity (MAPK15 (human); compound 1.0 µM): 34% | residual activity (MAPK15 (human); compound 10.0 µM): 4%
